In patent EP1481666A1, “A composition for re-establishment of the vaginal ecosystem” (ROTTAPHARM S.R.L., priority 2003, dated 2004):

System: Lactobacillus acidophilus ATCC 314
Experiment: Test 1: comparison between nutrient substrates (use of substrate added to MRS broth base by Lactobacillus)
Type: cell-based, Lactobacillus acidophilus ATCC 314 (human origin)
Conditions: for Lactic acid (%): HPLC; for Lactic acid (%) / D.O. / pH: 37°C, 24 hours; for D.O.: optical density of the culture; for growth and production of lactic acid: concentrations from 0.5 to 2.0%; for pH: starting pH 5.7±0.2
From the text: Since the Lactobacilli control the vaginal pH by means of the production of lactic acid it appeared to be useful to verify, both directly and indirectly, their capacity to utilise the various substrates proposed for the production of lactic acid and consequently their utility in the formulation of the composition.
• Lactobacillus acidophilus ATCC 314 (human origin) • Lactobacillus acidophilus wt (from vaginal swab)
• MRS broth (Lactobacillus broth according to De Man, Rogose) Merck • MRS broth base (without D(+)-glucose) • Series of MRS broth base media to which maltodextrins were added in percentages lying between 0.1 and 5% • Series of MRS broth base media to which glycogen was added in quantities lying between 0.5 and 2% • Series of MRS broth base media to which glucose was added in quantities lying between 0.1 and 2% • Series of MRS broth base media to which lactose was added in quantities lying between 0.5 and 2% Note: the pH of the media was always 5.7±0.2.
After having prepared fresh cultures of Lactobacilli in agar, an inoculation into five ml of MRS broth was incubated at 37°C for 24 hours. Aliquotes were prepared from 60 ml of the previously described media and in each of these were inoculated 600 µl of the culture in agar, with subsequent incubation at 37°C for 24 hours. As negative control aliquotes of 3 ml of the above-described media without inoculation of Lactobacilli were incubated. As positive control Merck MRS broth was utilised.
After 24 hours of incubation the optical density of the cultures was measured, the pH of the media was determined after centrifugation and filtration of the supernatant with a 0.45µ filter. The lactic acid present in the culture was also quantified by the HPLC method utilising as a control a laboratory standard of the same. These evaluation parameters have the following significance: • An increase in optical density confirms the growth of Lactobacilli; • Reduction in pH indicates the formation of lactic acid; • The quantitative determination of the lactic acid measures the efficiency of the use of the nutrient substrate by the Lactobacilli.

[1] = result in words, concentration of 0.1%
[2] = substrate 0.5 % in MRS broth base
[3] = substrate 1.0 % in MRS broth base
[4] = substrate 2.0 % in MRS broth base

| Structure (SMILES) | Lactic acid (%) (substrate 0.1 %) | Lactic acid (%) (substrate 0.5 %) | Lactic acid (%) (substrate 1.0 %) | Lactic acid (%) (substrate 2.0 %) | D.O. (substrate 0.1 %) | D.O. (substrate 0.5 %) | D.O. (substrate 1.0 %) | D.O. (substrate 2.0 %) | utilised for the growth of Lactobacillus [1] | utilised for the production of lactic acid [1] | growth and production of lactic acid (result in words) | pH (substrate 0.1 % in MRS broth base) | pH [2] | pH [3] | pH [4] |
| --- | --- | --- | --- | --- | --- | --- | --- | --- | --- | --- | --- | --- | --- | --- | --- |
| OC[C@H]1OC(O)[C@H](O)[C@@H](O)[C@@H]1O (stereo partly shown) [GLU, Glucose] | 0.17 | 0.90 | 1.80 | 2.43 | 0.665 | 1.540 | 2.593 | 2.540 | significant | hardly utilised | utilised in a useful and dose-dependent manner | 5.56 | 4.74 | 4.33 | 4.57 |
| OC[C@H]1O[C@@H](O[C@H]2[C@H](O)[C@@H](O)C(O)O[C@@H]2CO)[C@H](O)[C@@H](O)[C@H]1O (stereo partly shown) [LA, Lactose] |  | <0.10 | <0.10 | <0.10 |  | 0.218 | 0.221 | 0.179 |  |  | rather poor |  | 5.88 | 5.91 | 5.94 |
